Measurements as given in the Kinase Knowledgebase extract (Sharma et al. 2016).
Several values for one entry are separate records, joined by “and”; a condition that tells them apart may be missing. Identical values can stand only once.

Tests used:
PIK3CG (human) = PIK3CG (human) (UniProt P48736); experiment: Assessment of PIK3CG Kinase Activity
PIK3CA (human) = PIK3CA (human) (UniProt P42336); experiment: Assessment of PIK3CA Kinase Activity
PIK3CG;PIK3CA (human) [1] = molecular target: PIK3CG;PIK3CA (human) (UniProt P48736); experiment: Assessment of Antiproliferation Activity in MDA-MB-361 Cells
PIK3CG;PIK3CA (human), sequence (P48736 whole entry, looked up): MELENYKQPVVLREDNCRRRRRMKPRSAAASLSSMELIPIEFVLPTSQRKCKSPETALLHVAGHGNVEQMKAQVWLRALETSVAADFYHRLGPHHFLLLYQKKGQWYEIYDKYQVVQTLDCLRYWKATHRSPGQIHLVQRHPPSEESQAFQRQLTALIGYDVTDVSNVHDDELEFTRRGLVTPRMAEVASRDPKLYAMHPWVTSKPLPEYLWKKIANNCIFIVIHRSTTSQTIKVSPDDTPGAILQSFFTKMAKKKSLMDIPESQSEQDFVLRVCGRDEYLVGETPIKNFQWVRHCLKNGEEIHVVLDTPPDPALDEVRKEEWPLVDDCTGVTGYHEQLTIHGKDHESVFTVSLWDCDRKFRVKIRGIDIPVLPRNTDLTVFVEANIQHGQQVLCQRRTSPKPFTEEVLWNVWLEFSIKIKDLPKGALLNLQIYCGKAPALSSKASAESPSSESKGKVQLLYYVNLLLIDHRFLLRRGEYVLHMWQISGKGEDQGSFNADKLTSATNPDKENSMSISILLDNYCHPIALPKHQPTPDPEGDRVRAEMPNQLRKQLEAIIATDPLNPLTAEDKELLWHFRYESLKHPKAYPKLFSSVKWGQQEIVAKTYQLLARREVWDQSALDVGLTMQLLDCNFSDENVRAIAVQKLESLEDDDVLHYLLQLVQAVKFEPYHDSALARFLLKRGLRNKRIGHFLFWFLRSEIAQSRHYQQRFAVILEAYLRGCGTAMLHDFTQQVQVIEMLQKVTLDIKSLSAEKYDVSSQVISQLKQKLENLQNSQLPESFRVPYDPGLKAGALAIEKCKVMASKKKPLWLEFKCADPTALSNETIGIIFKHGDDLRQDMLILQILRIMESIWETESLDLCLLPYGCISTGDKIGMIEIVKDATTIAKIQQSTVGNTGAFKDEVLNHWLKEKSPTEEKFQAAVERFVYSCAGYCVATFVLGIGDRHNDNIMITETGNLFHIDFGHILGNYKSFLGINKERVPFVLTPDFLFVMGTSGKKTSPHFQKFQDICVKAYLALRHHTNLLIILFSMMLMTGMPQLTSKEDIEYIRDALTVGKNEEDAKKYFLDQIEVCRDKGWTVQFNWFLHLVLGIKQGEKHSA

PIK3CG;PIK3CA (human) [2] = molecular target: PIK3CG;PIK3CA (human) (UniProt P48736); experiment: Assessment of Antiproliferation Activity in PC3-MM2 Cells; conditions: pc3mm2
PIK3CG;PIK3CA (human) [3] = molecular target: PIK3CG;PIK3CA (human) (UniProt P48736); experiment: Assessment of Antiproliferation Activity in LNCaP Cells

PIK3CA (human), sequence (P42336 whole entry, looked up): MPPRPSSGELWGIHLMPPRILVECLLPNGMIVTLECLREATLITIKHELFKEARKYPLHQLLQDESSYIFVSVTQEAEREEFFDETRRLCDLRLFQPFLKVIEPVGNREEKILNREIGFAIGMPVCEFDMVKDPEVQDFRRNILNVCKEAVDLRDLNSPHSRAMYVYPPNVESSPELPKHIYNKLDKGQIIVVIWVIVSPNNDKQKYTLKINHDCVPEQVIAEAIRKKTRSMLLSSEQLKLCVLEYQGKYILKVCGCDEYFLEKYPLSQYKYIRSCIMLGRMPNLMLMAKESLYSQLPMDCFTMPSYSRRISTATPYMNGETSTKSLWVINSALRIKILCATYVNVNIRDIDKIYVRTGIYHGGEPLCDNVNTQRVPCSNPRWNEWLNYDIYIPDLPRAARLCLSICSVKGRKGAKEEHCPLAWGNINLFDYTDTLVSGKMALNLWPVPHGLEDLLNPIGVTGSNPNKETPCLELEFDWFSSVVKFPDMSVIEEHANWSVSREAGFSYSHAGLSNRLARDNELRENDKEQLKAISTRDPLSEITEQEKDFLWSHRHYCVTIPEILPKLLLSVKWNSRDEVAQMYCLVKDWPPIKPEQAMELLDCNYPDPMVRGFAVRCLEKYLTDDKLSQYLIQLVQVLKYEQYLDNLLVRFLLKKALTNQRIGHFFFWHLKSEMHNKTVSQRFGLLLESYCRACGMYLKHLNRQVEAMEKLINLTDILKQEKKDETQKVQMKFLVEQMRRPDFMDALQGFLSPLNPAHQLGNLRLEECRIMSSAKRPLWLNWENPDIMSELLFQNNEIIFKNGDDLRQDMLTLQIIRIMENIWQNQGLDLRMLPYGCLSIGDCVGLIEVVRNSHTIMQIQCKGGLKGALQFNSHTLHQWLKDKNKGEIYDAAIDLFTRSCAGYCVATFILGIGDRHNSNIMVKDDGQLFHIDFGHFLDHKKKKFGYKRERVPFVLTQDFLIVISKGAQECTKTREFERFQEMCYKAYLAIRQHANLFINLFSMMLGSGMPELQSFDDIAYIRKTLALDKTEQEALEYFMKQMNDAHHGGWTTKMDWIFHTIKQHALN
PIK3CG (human), sequence (P48736 whole entry, looked up): as the sequence (P48736 whole entry, looked up) above

Compound	IC50 (PIK3CG (human))	IC50 (PIK3CA (human))	IC50 (PIK3CG;PIK3CA (human) [1]) [nM]	IC50 (PIK3CG;PIK3CA (human) [2]) [nM]	IC50 (PIK3CG;PIK3CA (human) [3]) [nM]
CN1CCN(c2ccc(NC(=O)Nc3ccc(-c4nc(N5C6CCC5COC6)nc(N5[C@H](CO)CC[C@@H]5CO)n4)cc3)cc2)CC1	10000 nM	–	–	–	–
C[C@H]1COCCN1c1nc(-c2ccc(NC(=O)Nc3ccc(C(=O)NCCN4CCCC4)cc3)cc2)nc(N2CCOC[C@@H]2C)n1	378 nM	22 nM	26	106	–
Cc1ccc(-c2nc(-c3ccc(NC(=O)Nc4ccc(C(=O)N5CCCC5)cc4)cc3)nc(N3CCOCC3)n2)cc1	72 nM	12.5 nM	113	522	–
O=C(Nc1ccc(C(=O)Cc2ccccn2)cc1)Nc1ccc(-c2nc(N3CCOCC3)nc(N3CCOCC3)n2)cc1	23 nM	3 nM	68	31	–
CC(C)N1CCN(C(=O)c2ccc(NC(=O)Nc3ccc(-c4nc(N5CCCCC5)nc(N5CCOCC5)n4)cc3)cc2)CC1	58.5 nM	–	43	193	–
CC(C)N1CCN(C(=O)c2ccc(NC(=O)Nc3ccc(-c4nc(C5CCOCC5)nc(N5CCOCC5)n4)cc3)cc2)CC1	9.5 nM	3.2 nM	–	–	–
CN(C)CCN(C)c1ccc(NC(=O)Nc2ccc(-c3nc(N4C5CCC4COC5)nc(N4C5CCC4COC5)n3)cc2)cc1	–	6030 nM	–	–	2.2
CN(C)CCOc1ccc(NC(=O)Nc2ccc(-c3nc(N4CCSCC4)nc(N4C5CCC4COC5)n3)cc2)cc1	2430 nM	586 nM	–	–	–
COCCNc1ccc(NC(=O)Nc2ccc(-c3nc(N4C5CCC4COC5)nc(N4C5CCC4COC5)n3)cc2)cc1	7140 nM	1100 nM	–	–	1.2
CN(C)CCNC(=O)c1ccc(NC(=O)Nc2ccc(-c3nc(N4CCCCC4)nc(N4CCOCC4)n3)cc2)cc1	57.5 nM	3.5 nM	–	–	–
Cc1ccc(-c2nc(-c3ccc(NC(=O)Nc4cccc(C(=O)N5CCC(N(C)C)CC5)c4)cc3)nc(N3CCOCC3)n2)cc1	658 nM	462 nM	–	–	–
CN1CCC(Nc2ccc(NC(=O)Nc3ccc(-c4nc(N5C6CCC5COC6)nc(N5C6CCC5COC6)n4)cc3)cc2)CC1	–	6340 nM	–	–	3
CN(C)CCN(C)C(=O)c1ccc(NC(=O)Nc2ccc(-c3nc(N4CCC4)nc(N4CCOCC4)n3)cc2)cc1	36 nM	2 nM	–	–	–
CCN(CC)C(=O)[n+]1ccc(NC(=O)Nc2ccc(-c3nc(N4CCOCC4)nc(N4C5CCC4COC5)n3)cc2)cc1	444 nM and 606 nM	36 nM and 28 nM	–	–	–
O=C(Nc1ccc(C(=O)NCCN2CCCC2)cc1)Nc1ccc(-c2nc(O[C@H]3CCOC3)nc(N3CCOCC3)n2)cc1	–	–	–	27	–
CN(C)CCN(C)C(=O)c1ccc(NC(=O)Nc2ccc(-c3nc(C4CCOCC4)nc(N4CCOCC4)n3)cc2)cc1	–	0.8 nM	–	–	–
CN(C)C1CCN(C(=O)c2ccc(NC(=O)Nc3ccc(-c4nc(-c5ccccc5)nc(N5CCOCC5)n4)cc3)cc2)CC1	20.5 nM	3.5 nM	58	253	–

Other lines, results leading:

IC50 (PIK3CG (human))	IC50 (PIK3CA (human))	IC50 (PIK3CG;PIK3CA (human) [1]) [nM]	IC50 (PIK3CG;PIK3CA (human) [2]) [nM]	IC50 (PIK3CG;PIK3CA (human) [3]) [nM]	Compound
10000 nM	–	–	–	–	O=C(Nc1ccc(-c2nc(N3C4CCC3COC4)nc(N3C4CCC3COC4)n2)cc1)N1CCNCC1
459 nM	124 nM	–	–	–	FC(F)c1nc2ccccc2n1-c1nc(N2CC3CCC(C2)O3)nc(N2CC3CCC(C2)O3)n1
10000 nM	–	–	–	–	O=C(Nc1ccc(-c2nc(OCCN3CCCCC3)nc(N3CC4CCC(C3)O4)n2)cc1)Nc1cccnc1
8040 nM	1460 nM	–	–	70	O=C(Nc1ccc(NCCO)cc1)Nc1ccc(-c2nc(N3C4CCC3COC4)nc(N3C4CCC3COC4)n2)cc1
10000 nM	–	–	–	–	CN1CCCN(c2nc(-c3ccc(NC(=O)Nc4cccnc4)cc3)nc(N3CC4CCC(C3)O4)n2)C1
10000 nM	–	–	–	–	NCCCNc1nc(-c2ccc(NC(=O)Nc3cccnc3)cc2)nc(N2CC3CCC(C2)O3)n1
–	3090 nM	–	–	1	CN(C)C1CCN(c2ccc(NC(=O)Nc3ccc(-c4nc(N5C6CCC5COC6)nc(N5C6CCC5COC6)n4)cc3)cc2)CC1
10000 nM	–	–	–	–	O=C(Nc1ccc(-c2nc(NCCO)nc(N3CC4CCC(C3)O4)n2)cc1)Nc1cccnc1
4000 nM	1850 nM	–	–	1000	O=C(Nc1ccncc1)Nc1ccc(-c2nc(N3CCC(N4CCOCC4)CC3)nc(N3CC4CCC(C3)O4)n2)cc1
7030 nM	521 nM	–	–	50	CC(C)Nc1nc(-c2ccc(NC(=O)Nc3ccc(N4CCN(C)CC4)nc3)cc2)nc(N2CC3CCC(C2)O3)n1
10000 nM	–	–	–	–	CC(C)Nc1nc(-c2ccc(NC(=O)NCCO)cc2)nc(N2CC3CCC(C2)O3)n1
10000 nM	–	–	–	–	CC(C)Nc1nc(-c2ccc(NC(=O)NC3CC3)cc2)nc(N2CC3CCC(C2)O3)n1
10000 nM	–	–	–	–	CNC(=O)Nc1ccc(-c2nc(N3CC4CCC(C3)O4)nc(N3CC4CCC(C3)O4)n2)cc1
10000 nM	–	–	–	–	O=C(O)CNC1CCN(c2nc(-c3ccc(NC(=O)Nc4ccncc4)cc3)nc(N3CC4CCC(C3)O4)n2)CC1
–	832 nM	–	–	290	Nc1ccc(-c2nc(-c3ccc(NC(=O)Nc4cccnc4)cc3)nc(N3CC4CCC(C3)O4)n2)cc1
–	–	–	–	100	O=C(Nc1ccc(-c2nc(N3C[C@@H]4C[C@H]3CO4)nc(N3C[C@@H]4C[C@H]3CO4)n2)cc1)Nc1ccc(N2CCNCC2)cc1
43 nM	24 nM	–	–	–	FC(F)c1nc2ccccc2n1-c1nc(N2CCOCC2)nc(N2CC3CCC(C2)O3)n1
